Reference: patent publication EP0623592B1, “Peptide analogs as irreversible interleukin-1beta protease inhibitors” (VERTEX PHARMACEUTICALS INCORPORATED, priority 1993, dated 1994)

molecular target: T1, IL-1β protease (Homo sapiens, UniProt P29466); assay: IL-1β protease inhibition assay (HPLC readout of TRITC-AYVHDAPVRS-NH2 substrate cleavage); format: biochemical; conditions: partially purified IL-1β protease; 15 minutes preincubation with inhibitor at 37°C; substrate 67 µM; 60 minutes at 37°C
T1 construct: Partially purified IL-1β protease is stored at -80°C
T1 sequence (P29466 120-297 limits assumed): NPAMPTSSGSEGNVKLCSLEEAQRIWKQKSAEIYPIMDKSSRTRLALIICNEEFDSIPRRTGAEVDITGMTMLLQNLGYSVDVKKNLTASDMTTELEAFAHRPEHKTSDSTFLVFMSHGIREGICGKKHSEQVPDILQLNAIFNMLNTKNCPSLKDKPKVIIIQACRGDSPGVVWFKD
T1 sequence (P29466 317-404 limits assumed): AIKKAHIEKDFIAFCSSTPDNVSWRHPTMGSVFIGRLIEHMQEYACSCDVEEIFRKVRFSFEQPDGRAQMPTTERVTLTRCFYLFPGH
Description: Compounds of the present invention were tested for IL-1β protease inhibition activity according to the following protocol: Partially purified IL-1β protease is stored at -80°C, thawed on ice, and preincubated for 10 minutes at 37°C with 2.5 mM dithiothreitol in a buffer solution containing 10 mM Tris-HCI (pH 8.0) and 25% (v/w) glycerol. Inhibitors are prepared as stock solutions in dimethyl sulfoxide (DMSO). The protease is preincubated with inhibitor in a volume of 20 µl in a 1.5 ml polypropylene microcentrifuge tube for 15 minutes at 37°C. The volume of compound added to the assay is adjusted to yield a DMSO concentration in the preincubation of <15% (v/v). The enzyme assay is then initiated by the addition of substrate (TRITC-AYVHDAPVRS-NH2) to yield a final concentration of 67 µM in a final volume of 30 µl. The reactions are carried out for 60 minutes at 37°C in the dark and are terminated by the addition of 10 µl of 10% trifluoroacetic acid (TFA). Following the addition of 115 µl of 0.1% TFA, the samples are analyzed by high pressure liquid chromatography using a reverse phase (C18) column and elution with an acetonitrile/water/TFA gradient. Substrate and product are monitored by their absorbance at 550 nm and elute at 4.2 and 5.2 minutes, respectively.

Compound	IC50 [µM]
O=C(O)C[C@H](NC(=O)OCc1ccccc1)C(=O)COC(=O)c1c(Cl)cccc1Cl [Example 38, N-Benzyloxycarbonyl-L-Aspartic Acid 2,6-Dichlorobenzoyloxymethyl Ketone]	0.05
O=C(O)C[C@H](NC(=O)OCc1ccccc1)C(=O)COC(=O)c1c(C(F)(F)F)cccc1C(F)(F)F [Example 40, N-Benzyloxycarbonyl-L-aspartic acid 2,6-ditrifluoromethyl benzoyloxymethyl ketone]	0.1
O=C(O)C[C@H](NC(=O)OCc1ccccc1)C(=O)COc1c(Cl)cccc1Cl [Example 41, N-Benzyloxycarbonyl-L-aspartic acid 2,6-dichlorophenoxymethylketone]	0.1

Further lines, results first:

IC50 [µM]	Compound
0.06	COC(=O)N[C@@H](C)C(=O)N[C@@H](CC(=O)O)C(=O)COC(=O)c1c(Cl)cccc1Cl [Example 54, N-Methoxycarbonyl-L-alanine-L-aspartic acid 2,6-dichlorobenzoyloxymethyl ketone]
0.07	COC(=O)N[C@@H](Cc1ccccc1)C(=O)N[C@@H](CC(=O)O)C(=O)COC(=O)c1c(Cl)cccc1Cl [Example 57, N-Methoxycarbonyl-L-phenylalanine-L-aspartic acid 2,6-dichlorobenzoyloxymethyl ketone]
0.08	COC(=O)N[C@@H](CC(=O)O)C(=O)COC(=O)c1c(Cl)cccc1Cl [Example 67, N-Methoxycarbonyl-L-aspartic acid 2,6-dichlorobenzoyloxymethyl ketone]
